Entries after “also recorded” stand apart in the source; their conditions may differ. Where no end group is shown, it is not given here.
Legend:
[1] = tested on: human renin; experiment: Bio-layer interferometry, hepcidin-renin binding; conditions: biotinylated renin on sensors; analyte 12.5-100 μM; ForteBio Octet RED384, PBS pH 7.2 and 150 mM NaCl, 27°C; association 0–1200 s, dissociation 1200–2000 s
Protocol: Human prorenin coding gene was ordered from GeneArt in pcDNA3.1(+) as fusion protein with a C-terminal His-tag. The pcDNA3.1 vector confers ampicillin resistance. Plasmid was dissolved in 50 μl of TE-EF and the amount of 100 ng was transferred into Escherichia coli TOP10 cells (Invitrogen, UK) with the heat shock method (30 s). In the next day colonies were picked for midiprep isolation. A single colony was picked and cultured in 5 ml media supplemented with 100 μg/ml ampicillin and 5 mM glucose for 7 hours after which it is moved to 200 ml LB media, which included ampicillin and glucose, and grown overnight at 37°C 220 rpm. The plasmid DNA was isolated using Nucleobond Xtra Midi Plus EF Kit (Macherey-Nagel, #7404220). Plasmid DNA produced was endotoxin-free. Human prorenin was then produced in ExpiCHO cells.
Cell pellet was re-suspended in 20 ml buffer (50 mM Hepes, 200 mM NaCl, 10% Glycerol, 1 mM TCEP, pH 7.5) and protease inhibitor tablet was added. Cell lysis was made with sonicator (1 min, 50%, 2 sec on/5 sec off cycle). […]
Biotinylation of renin was done using NHS-PEG4-Biotin (ThermoFisher Scientific) at 1:1 molar ratio. […] Concentration of biotinylated protein was measured using NanoDrop™ One Uv-Vis spectrophotometer (ThermoFisher Scientific). […]
(§1) Mean enzyme inhibitory activities with the standard error of means were calculated at different concentrations. […]

[2] = tested on: angiotensin-converting enzyme 1 (ACE1); experiment: ACE1 inhibition screening kit (fluorometric); format: biochemical
Protocol: (§2) Activity measurements for all three enzymes (renin, ACE1 and ACE2) were carried out using commercial inhibition kits following manufacturer’s instructions. Screening kits were purchased from Biovision (Biovision, Inc. San Francisco, CA). Candidate inhibitors used were human hepcidin-25/LEAP-1 (disulfide bonds between Cys7–Cys23, Cys10–Cys13, Cys11–Cys19, and Cys14–Cys22, purity assessed by HPLC ≥ 98.0%) purchased from Peptides International (Peptides International Inc, Louisville, KY) as well as N-terminal part of hepcidin, Asp-Thr-His-Phe-Pro (hepcidin-5) synthetized by Proteogenix (Schiltigheim, France).
(§3) All kits included the enzyme, substrate, and enzyme inhibitor as negative control. […] DABCYL-EDANS is well-known FRET pair where fluorescence is quenched when peptide is uncleaved. Fluorescence signal is increased after peptide is cleaved and EDANS molecule is free in the solution. The fluorescence intensity was recorded and calculated as follows. […] Both candidate inhibitors were measured with final sample concentrations of 10 nM, 100 nM and 500 nM. […] Fluorescence measurement was performed using Perkin Elmer UV/VIS Envision multimode plate reader. […] Fluorescence was recorded every 60 s for 60 min at 37°C. […]
Briefly, ACE1 enzyme solution was added to a 96-well plate and each diluted candidate enzyme inhibitors were added. […] Fluorescence was recorded every 60s for 100 min at 37°C. […]

[3] = tested on: renin; experiment: Renin inhibitor screening kit (fluorometric FRET, DABCYL-EDANS); format: biochemical; conditions: for Mean inhibitory effect on renin activity: 5 min pre-incubation at 37°C, read every 60 s for 60 min at 37°C, ex/em 328/552 nm; for Renin inhibition (in words): 10, 100 and 500 nM, in vitro, 37°C
Protocol: as §2
All kits included the enzyme, substrate, and enzyme inhibitor as negative control. The fluorophore labelled substate was cleaved by the enzyme. The used fluorophores were a synthetic o-aminobenzoyl peptide for ACE1, 7-Methoxycoumarin-4-acetic acid (MCA) for ACE2 and 5-((2-Aminoethyl)amino)naphthalene-1-sulfonic acid (EDANS) for renin. DABCYL-EDANS is well-known FRET pair where fluorescence is quenched when peptide is uncleaved. Fluorescence signal is increased after peptide is cleaved and EDANS molecule is free in the solution. The fluorescence intensity was recorded and calculated as follows. According to renin inhibitor screening kit instructions hepcidin-25 and hepcidin-5 were first pipetted to a black ForteBio’s 96-well plate. Renin enzyme solution was added and mixed. Both candidate inhibitors were measured with final sample concentrations of 10 nM, 100 nM and 500 nM. The plate was incubated for 5 min at 37°C. Finally, substrate solution was added into each well. Fluorescence measurement was performed using Perkin Elmer UV/VIS Envision multimode plate reader. Excitation and emission wavelengths were 328 and 552 nm, respectively. Fluorescence was recorded every 60 s for 60 min at 37°C. Inhibitory activity of renin was calculated as follows: Renininhibitoryactivity(%)=1−Activitywithsample/Activitywithoutsamplex100 where “Activity with sample” is the slope calculated from the linear range of the fluorescence plot at the presence of candidate inhibitor. Activity without the sample represents the slope without any sample in the well.
Mean enzyme inhibitory activities with the standard error of means were calculated at different concentrations. Data analysis was performed using Microsoft Office 365 ProPlus Excel version 1902 for Windows. The hepcidin–renin binding data was treated as follows: Background was subtracted, and the data was normalised to allow comparison between experiments. The normalised data was analysed with […] regression analysis in GraphPad Prism 5.02 (GraphPad Software, La Jolla, CA) assuming one-site specific binding.

[4] = tested on: angiotensin-converting enzyme 2 (ACE2); experiment: ACE2 inhibition screening kit (fluorometric); format: biochemical; conditions: 10, 100 and 500 nM; 15 min pre-incubation at room temperature, read every 60 s for 60 min, ex/em 320/420 nm; n = 3-6-4 (hepcidin-25), 3-6-3 (hepcidin-5)
Protocol: as §2
as §3, with “control. The fluorophore labelled substate was cleaved by the enzyme.” for “control.”
as §1

hepcidin-20: control peptide, purchased from Pepnet; truncated isoform without N-terminal hepcidin-5 (ICIFCCGCCHRSKCGMCCKT; ends and bridges not checked; cysteine pairing not given here; UniProt P81172 65-84, looked up)
Binding to renin (association and dissociation curves, in words) [1]: cannot bind to renin

Asp-Thr-His-Phe-Pro [hepcidin-5, N-terminal part of hepcidin, synthetized by Proteogenix]
ACE1 inhibitory activity (strongest) ([2]; 500 nM, 15 min pre-incubation at 37°C, read every 60 s for 100 min at 37°C, ex/em 330/430 nm, n = 6): 34.8% | Mean inhibitory effect on renin activity ([3]; 10 nM peptide, n = 2): 50.1% | Mean inhibitory effect on renin activity ([3]; 100 nM peptide, n = 3): 50.0% | Mean inhibitory effect on renin activity ([3]; 500 nM peptide, n = 3): 58.6% | Renin inhibition (in words) [3]: stronger effect on renin than hepcidin-25

hepcidin-25: human hepcidin-25/LEAP-1 (disulfide bonds between Cys7–Cys23, Cys10–Cys13, Cys11–Cys19, and Cys14–Cys22), purchased from Peptides International
ACE1 inhibition (in words) ([2]; 10, 100 and 500 nM, 37°C, n = 5-6-1 for hepcidin-25): not inhibited remarkably; also recorded: low inhibitory activity | Mean inhibitory effect on renin activity ([3]; 10 nM peptide, n = 2): 20.4% | Mean inhibitory effect on renin activity ([3]; 100 nM peptide, n = 3): 29.2% | Mean inhibitory effect on renin activity ([3]; 500 nM peptide, n = 3): 38.3% | Renin inhibition (in words) [3]: has an inhibitory effect on renin in vitro; also recorded: can bind to renin enzyme and inhibit its activity in vitro; also recorded: can bind to the active site of renin and inhibit its activity in vitro | ACE2 inhibition (in words) [4]: not inhibited remarkably | Binding to renin (association and dissociation curves, in words) [1]: concentration dependent

Source: publication PMC9020709, “Hepcidin is potential regulator for renin activity” (PLoS ONE, 2022)
